# In the NIST ThermoML archive (doi:10.1016/j.tca.2019.178334):
# ± gives the expanded uncertainty stated by the source.
# Assay: excess molar enthalpy (molar enthalpy of mixing); xn = mol fraction of the nth substance listed
# Settings: 933 K, 101 kPa, Liquid, Calvet calorimetry
smiles,measurement,setting,value
[Cl-].[Li+] [lithium chloride] + [Cl-].[K+],excess molar enthalpy,x2 = 0,0 ± 0.000239 kcal/mol
same,excess molar enthalpy,x2 = 0.026,-0.117 ± 0.0098 kcal/mol
same,excess molar enthalpy,x2 = 0.061,-0.239 ± 0.0143 kcal/mol
same,excess molar enthalpy,x2 = 0.073,-0.308 ± 0.0165 kcal/mol
same,excess molar enthalpy,x2 = 0.105,-0.372 ± 0.0198 kcal/mol
same,excess molar enthalpy,x2 = 0.128,-0.488 ± 0.0263 kcal/mol
same,excess molar enthalpy,x2 = 0.162,-0.542 ± 0.0287 kcal/mol
same,excess molar enthalpy,x2 = 0.188,-0.638 ± 0.0335 kcal/mol
same,excess molar enthalpy,x2 = 0.214,-0.705 ± 0.0359 kcal/mol
same,excess molar enthalpy,x2 = 0.24,-0.781 ± 0.0406 kcal/mol
same,excess molar enthalpy,x2 = 0.275,-0.861 ± 0.043 kcal/mol
same,excess molar enthalpy,x2 = 0.298,-0.884 ± 0.0454 kcal/mol
same,excess molar enthalpy,x2 = 0.33,-0.965 ± 0.0478 kcal/mol
same,excess molar enthalpy,x2 = 0.371,-1.02 ± 0.0526 kcal/mol
same,excess molar enthalpy,x2 = 0.418,-1.06 ± 0.055 kcal/mol
same,excess molar enthalpy,x2 = 0.427,-1.04 ± 0.0526 kcal/mol
